# Patent US20120041185A1, “dTDP-BETA-D-FUCOFURANOSE, ITS PREPARATION METHOD AND USE” (TIANJIN BIOCHIP TECHNOLOGY CORPORATION, priority 2007, published 2012)
# How the values were obtained:
# [1] = tested on: Fcf1 (recombinant dTDP-D-GIcO reductase); experiment: Divalent cation requirements of Fcf1 (effects of cations on enzyme activity); type: biochemical, E. coli O52; details: for Transformation rate (%): in the presence of 5 mM divalent ion chloride, 100 without ion; for influence on conversion ratio / inhibition to enzyme activity: 5 mM divalent ion chloride
# Experimental: 20 μl reactions in 0.5 ml centrifugal tube contain 2 mM dTDP-D-Glco, 3 mM NADPH, 50 mM Tris-HCl buffer (pH7.4), 5 mM divalent ion chloride and 0.25 μM recombinant dTDP-D-GIcO reductase protein purified in example 2. The reactions are proceeded at certain temperatures for 2 hours. Then add chloroform of equal volume to extract protein. The aqueous phase is detected by Beckman Coulter P/ACE MDQ capillary electrophoresis.
# [2] = target: T1, Fcf2 (recombinant dTDP-D-Glcfucofuranose mutase) (Escherichia coli, UniProt Q6E7F1); experiment: Divalent cation requirements of Fcf2 (effects of cations on enzyme activity); type: biochemical, E. coli O52; details: for Transformation rate (%): in the presence of 5 mM divalent ion, 9.5 without ion
# T1 construct: The entire ORF encodes a protein composed of 377 amino acids; His6 (N); made in house; host or cells: E. coli BL21
# Experimental: 25 μl reactions in 0.5 ml centrifugal tube contain 2 mM dTDP-D-fucose, 50 mM Tris-HCl buffer (pH 7.4) 5 mM divalent ion chloride and 3.9 μM recombinant dTDP-D-Glcfucofuranose mutase protein purified in example 2. The reactions are proceeded at certain temperature for 3 hours. Then add chloroform of equal volume to extract protein. The aqueous phase is detected by Beckman Coulter P/ACE MDQ capillary electrophoresis.
# T1 sequence (Q6E7F1 whole entry): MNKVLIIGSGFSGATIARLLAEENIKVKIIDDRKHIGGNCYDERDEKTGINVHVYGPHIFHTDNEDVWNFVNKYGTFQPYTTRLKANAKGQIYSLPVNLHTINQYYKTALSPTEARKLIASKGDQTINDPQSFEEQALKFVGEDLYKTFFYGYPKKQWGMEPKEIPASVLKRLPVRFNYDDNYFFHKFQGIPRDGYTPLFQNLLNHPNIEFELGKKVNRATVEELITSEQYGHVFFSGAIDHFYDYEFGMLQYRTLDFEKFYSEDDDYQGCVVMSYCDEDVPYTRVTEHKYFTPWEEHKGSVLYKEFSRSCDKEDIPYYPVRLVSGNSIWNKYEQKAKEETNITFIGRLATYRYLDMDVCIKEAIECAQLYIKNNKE
SMILES,Transformation rate (%) [1],Transformation rate (%) [2],influence on conversion ratio / inhibition to enzyme activity [1],inhibition to enzyme activity ([2]; 5 mM divalent ion)
"[Ca+2].[Cl-].[Cl-] [Ca^2+, CaCl2]",98.1%,9.6%,–,–
"[Cl-].[Cl-].[Co+2] [Co^2+, CoCl2]",89.2%,8.8%,–,–
"[Cl][Cu][Cl] [Cu^2+, CuCl2]",11.8%,0%,highest inhibition,obvious inhibition
"[Cl][Fe][Cl] [Fe^2+, FeCl2]",90.5%,9.1%,–,–
"[Cl-].[Cl-].[Mg+2] [Mg^2+, MgCl2]",100%,9.7%,no influence,–
"[Cl][Mn][Cl] [Mn^2+, MnCl2]",100%,5.4%,no influence,–
